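Following 48 hours of exposure in 96-well plates, responses at five concentrations were used to interpolate endpoints linearly. TGI is the concentration that stops growth completely.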

Common to all, as to experiment: DTP human tumour cell line panel, 48 h
The test system of assay [1] is LOX IMVI melanoma.
For assay [2], the system named is NCI-H23 lung.
The test system of assay [3] is UO-31 renal.
For assay [4], the system named is CCRF-CEM leukemia.
Assay [5] relates to HS 578T breast.
The subject of assay [6] is A498 renal.
In assay [7] the test system is NCI-H522 lung.
The test system of assay [8] is MALME-3M melanoma.
The subject of assay [9] is SK-MEL-5 melanoma.
Assay [10] relates to SK-OV-3 ovarian.
Assay [11] deals with SN12C renal.
In assay [12] the test system is M14 melanoma.
The subject of assay [13] is MOLT-4 leukemia.
In assay [14] the test system is SR leukemia.
Assay [15] has as its system EKVX NSCLC.
For assay [16], the system named is HOP-62 NSCLC.
Assay [17] concerns PC-3 prostate.
Assay [18] has as its system SNB-75 CNS.

The term TGI denotes the concentration giving total growth inhibition. A high value points to less potent growth arrest. `CC[C@](O)(CC(=O)O[C@H]1C(=O)O[C@@H]2C[C@H]3C(C)=CC(=O)[C@@H](O)[C@]3(C)[C@H]3[C@@]4(O)OC[C@]32[C@@H]1[C@@H](C)[C@H]4O)C(C)C`: the TGI in assay [1] is less than 0.01 µM; in assay [2], less than 0.01 µM; in assay [3] it was 0.0447 µM; in assay [4], less than 0.01 µM; in assay [5] it was less than 0.01 µM; in assay [6], less than 0.01 µM. Besides, the TGI in assay [7], in assay [8], in assay [9], in [10], in assay [11] and in assay [12] was less than 0.01 µM throughout. The TGI in assay [13], in [14], in [15], in assay [16], in [17] and in assay [18] was less than 0.01 µM in each case.
With `O=C1C(=O)c2c(oc(=O)c3ccccc23)-c2ccccc21`, the TGI in assay [1], in assay [2], in [3], in assay [4], in assay [5] and in [6] was more than 25 µM throughout. The TGI in [7], in [8], in [9], in assay [10], in assay [11] and in assay [12] was more than 25 µM in each case. The TGI in assay [13], in assay [14], in assay [15], in [16], in assay [17] and in [18] was more than 25 µM in each case.
`CCN(CC)C1Oc2cc3c(cc2C(c2ccc(OC)cc2)C1C)OCO3` (stereo not drawn): the TGI in [1] was 34.1 µM; in [2], 51 µM; in assay [3], 64.9 µM; in assay [4], 34 µM; in assay [5] it was 48.2 µM; in [6], 48.2 µM. Besides, the TGI in assay [7] came to 35.8 µM; in assay [8] it was 37.3 µM; in [9], 31.9 µM; in assay [10], 97.4 µM; in assay [11], 63 µM; in assay [12], 51.4 µM. Further, the TGI in assay [13] came out at 41.8 µM; in assay [14], 27.6 µM; in [15], 49.9 µM; in assay [16] it was 54.9 µM; in [17], 72.6 µM; in assay [18], 59.7 µM.
Regarding `COc1cc2c[n+](C)c3c4cc5c(cc4ccc3c2cc1OC)OCO5`, the TGI in assay [1] is 24.8 µM; in [2] it was 3.65 µM; in assay [3], more than 100 µM; in assay [4] it was 19.5 µM; in assay [5], more than 100 µM; in assay [6], 2.67 µM. Besides, the TGI in assay [7] is 2.06 µM; in [8] it was 37.5 µM; in [9], 23.2 µM; in assay [10] it was 5.64 µM; in assay [11] it was more than 27.8 µM; in assay [12], more than 88.1 µM. Further, the TGI was 13.5 µM in assay [13]; 22.8 µM in assay [14]; 18.7 µM in [15]; 16.4 µM in assay [16]; more than 100 µM in assay [17]; 0.767 µM in assay [18].
On to `C=C(Cl)c1c(OC)cccc1OCc1ccccc1`, for which the TGI in [1], in assay [2], in [3], in assay [4], in assay [5] and in assay [6] was more than 100 µM in each case. In addition, the TGI in assay [7], in assay [8], in assay [9], in assay [10], in assay [11] and in assay [12] was more than 100 µM each time. Also, the TGI in [13], in [14], in assay [15], in assay [16], in assay [17] and in assay [18] was more than 100 µM throughout.
Take `COc1ccc(/C=C2\CCC(CNc3cc(C)on3)C2=O)cc1` (stereo not drawn): the TGI in [1], in assay [2], in assay [3], in assay [4], in assay [5] and in assay [6] was more than 100 µM throughout. The TGI in assay [7], in [8], in assay [9], in assay [10], in assay [11] and in [12] was more than 100 µM throughout. For the same compound, the TGI was more than 100 µM in assay [13]; more than 100 µM in assay [14]; more than 100 µM in [15]; more than 100 µM in [16]; more than 100 µM in [17]; more than 76.4 µM in [18].

For the origin of these results see PubChem BioAssay (NCI).
